Read-outs that look alike come from different tables or passages of the source.

Data set [1] relates to SH-SY5Y human neuroblastoma. Nature of the data set: MTT cytotoxicity assay, SH-SY5Y. The data set is classed as cell-based. The note with it: 24 h. How it is done:
(§1) Cytotoxicity was assessed using the MTT assay. Briefly, the cells were seeded into a 96-well plate at a density of 1×10^5 cells per well in 100 µL of corresponding media and incubated at 37 °C in an incubator under 5% CO2 tension for 24 h. The culture media were then replaced with 100 µL of fresh serum-free media in the presence of varied concentrations of pterosin derivatives, and cells were incubated for an additional 24 h. The control was treated with an equal amount of DMSO present in the assay for a 5 mM concentration. Then, 100 µL of MTT solution (0.5 mg/mL in Phosphate Buffered Saline (PBS)) was added to each culture. To measure the proportion of surviving cells, the media were replaced with 100 µL of DMSO 2 h after the administration of MTT solution. The absorbance was measured at 570 nm using a spectrophotometric plate reader (Molecular Devices, Sunnyvale, CA, USA).
For orientation: Formazan colour is commonly taken as a measure of viable cells.

For data set [2], the system named is NIH3T3 mouse embryo fibroblasts. Nature of the data set: MTT cytotoxicity assay, NIH3T3. The data set is classed as cell-based. The note with it: 24 h. Here is the method: as §1
The subject of data set [3] is B16F10 mouse melanoma. Nature of the data set: MTT cytotoxicity assay, B16F10. The data set is classed as cell-based. To be noted: 24 h. Here is the method: as §1
The subject of data set [4] is Mouse neuroblastoma N2a cells stably overexpressing the human APP Swedish mutation (APPswe). Nature of the data set: Aβ40/Aβ42 sandwich ELISA of conditioned media of APPswe neuroblastoma cells. The data set is classed as cell-based. How it is done:
Mouse neuroblastoma N2a cells stably overexpressing the human APP Swedish mutation (APPswe) were kindly provided by Dr. Takeshi Iwatsubo (The University of Tokyo). […] To analyze the effect of (2R)-pterosin B or (2R,3R)-pteroside C on APP metabolites, APPswe-containing neuroblastoma cells were cultured up to confluency in DMEM that contained 10 mM butyric acid to drive protein expression in the presence of 12, 60, 250, and 500 μM of (2R)-pterosin B or (2R,3R)-pteroside C for 24 h. β-SI (10 µM) was used as a positive control. The negative control included cells cultured in the absence of test compounds. […] Conditioned medium was collected in 0.5 mM phenylmethylsulfonyl fluoride and subjected to ELISA for the 40-residue peptide Aβ (1–40) (Aβ40) or the 42-residue Aβ (1–42) (Aβ42).
Aβ40 and Aβ42 ELISA was performed according to the manufacturer’s instructions. The assay was conducted in a microplate coated with anti-human Aβ35-40 mouse IgG (1A10) or anti-human Aβ38-42 mouse IgG (44A3), respectively. The microplate was added with 100 μL conditioned media, incubated overnight at 4 °C, and then washed with washing buffer. Horseradish peroxidase-conjugated anti-human Aβ11-28 mouse IgG (82E1) was added into each well, incubated at 4 °C for 1 h, and washed with washing buffer. 3,3′,5,5′-Tetramethylbenzidine as a chromogenic substrate was added to each well and incubated for 30 min. The reaction was stopped by the addition of 100 μL stop solution, and the absorbance at 450 nm was measured using a model 680 microplate reader (Bio-Rad, Hercules, CA).

For data set [5], the target named is BACE1 (human recombinant β-secretase) (Homo sapiens, UniProt P56817). Nature of the data set: Kinetic analysis of BACE1 inhibition (Dixon and Lineweaver−Burk plots). The data set is classed as biochemical. To be noted: for Inhibition type BACE1: Dixon and Lineweaver−Burk plots. How it is done: (§2) The Ki was determined by interpretation of the Dixon plot, with the value of the x-axis intercept taken as −Ki.
Chain of BACE1 (human recombinant β-secretase) (P56817 46-501): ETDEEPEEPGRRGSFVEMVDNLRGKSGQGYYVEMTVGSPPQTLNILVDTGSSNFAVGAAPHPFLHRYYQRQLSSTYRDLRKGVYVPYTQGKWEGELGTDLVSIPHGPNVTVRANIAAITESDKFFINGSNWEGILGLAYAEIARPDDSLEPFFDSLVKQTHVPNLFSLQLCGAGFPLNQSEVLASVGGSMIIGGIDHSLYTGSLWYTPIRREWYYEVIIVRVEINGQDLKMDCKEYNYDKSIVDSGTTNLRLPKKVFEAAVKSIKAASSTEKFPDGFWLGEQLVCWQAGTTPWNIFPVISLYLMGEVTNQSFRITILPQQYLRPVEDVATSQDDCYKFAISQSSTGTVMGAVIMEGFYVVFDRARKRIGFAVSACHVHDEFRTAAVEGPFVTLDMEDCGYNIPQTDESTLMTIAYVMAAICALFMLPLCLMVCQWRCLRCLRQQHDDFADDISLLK
Dixon plots for BACE1 inhibition by pterosin derivatives.
Dixon plots for BACE1 inhibition by pteroside derivatives.

Data set [6] concerns the target T1, horse serum BChE (Equus caballus, UniProt P81908).
T1 construct: horse serum BChE (EC 3.1.1.8); purchased Sigma-Aldrich Co; host or cells: horse serum
Nature of the data set: Kinetic analysis of BChE inhibition (Dixon and Lineweaver−Burk plots). The note with it: for Inhibition type BChE: Dixon and Lineweaver−Burk plots. The data set is classed as biochemical. Here is the method: as §2
Dixon plots for BChE inhibition by pterosin derivatives. (2S,3R)-Pterosin C (A), (2R,3R)-pterosin C (B), and (2R)-pterosin B (C) were tested in the presence of substrate concentrations of 0.2 mM (●), 0.4 mM (○), and 0.8 mM (▼).
Dixon plots for BChE inhibition by pteroside derivatives. (2R)-pteroside B (A), (2R,3R)-pteroside C (B), and (3S)-pteroside D (C) were tested in the presence of substrate concentrations of 0.2 mM (●), 0.4 mM (○), and 0.8 mM (▼). Lineweaver-Burk plots for BChE inhibition were generated with inhibitor concentrations of 0 µM (Δ), 4 µM (▼), 20 µM (○), and 100 µM (●) for (2R)-pteroside B (D); 0 µM (Δ), 0.8 µM (▼), 4 µM (○), and 20 µM (●) for (2R,3R)-pteroside C (E) and (3S)-pteroside D (F).

The target of data set [7] is T2, Electric eel AChE (Electrophorus electricus, UniProt O42275).
T2 construct: purchased Sigma-Aldrich Co
T2 sequence (O42275 24-633): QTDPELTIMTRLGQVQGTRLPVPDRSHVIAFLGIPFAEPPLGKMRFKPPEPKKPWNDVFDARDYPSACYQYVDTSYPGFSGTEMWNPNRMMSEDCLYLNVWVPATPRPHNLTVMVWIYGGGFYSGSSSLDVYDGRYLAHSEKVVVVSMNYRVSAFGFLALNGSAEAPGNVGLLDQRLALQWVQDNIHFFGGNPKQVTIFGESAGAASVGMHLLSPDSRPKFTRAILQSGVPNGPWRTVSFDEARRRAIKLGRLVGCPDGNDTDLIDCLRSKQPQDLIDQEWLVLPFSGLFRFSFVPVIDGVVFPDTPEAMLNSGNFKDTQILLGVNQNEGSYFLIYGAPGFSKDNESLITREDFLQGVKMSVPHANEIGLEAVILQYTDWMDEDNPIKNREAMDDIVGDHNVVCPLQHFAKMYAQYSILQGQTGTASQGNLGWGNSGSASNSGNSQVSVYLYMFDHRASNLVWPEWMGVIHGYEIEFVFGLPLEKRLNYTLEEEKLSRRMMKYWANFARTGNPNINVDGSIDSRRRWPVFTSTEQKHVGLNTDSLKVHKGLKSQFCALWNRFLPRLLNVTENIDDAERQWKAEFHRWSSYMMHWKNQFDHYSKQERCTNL
Nature of the data set: Kinetic analysis of AChE inhibition (Dixon and Lineweaver−Burk plots). The data set is classed as biochemical. The note with it: for Inhibition type AChE: Dixon and Lineweaver−Burk plots. Here is the method:
as §2
Dixon plots for AChE inhibition by pterosin derivatives. (2S,3R)-Pterosin C (A), (2R,3R)-pterosin C (B), and (2R)-pterosin B (C) were tested in the presence of substrate concentrations of 0.1 mM (●), 0.3 mM (○), and 0.6 mM (▼). Lineweaver-Burk plots for AChE inhibition were generated with inhibitor concentrations of 0 µM (Δ), 4 µM (▼), 20 µM (○), and 100 µM (●) for (2S,3R)-pterosin C (D) and (2R,3R)-pterosin C (E); and 0 µM (Δ), 2 µM (▼), 10 µM (○), and 50 µM (●) for (2R)-pterosin B (F).
Dixon plots for AChE inhibition by pteroside derivatives. (2R)-pteroside B (A), (2R,3R)-pteroside C (B), and (3S)-pteroside D (C) were tested in the presence of substrate concentrations of 0.1 mM (●), 0.3 mM (○), and 0.6 mM (▼). Lineweaver-Burk plots for AChE inhibition were generated with inhibitor concentrations of 0 µM (Δ), 0.8 µM (▼), 4 µM (○), and 20 µM (●) for (2R)-pteroside B (D), (2R,3R)-pteroside C (E), and (3S)-pteroside D (F).

T1 sequence (P81908 whole entry): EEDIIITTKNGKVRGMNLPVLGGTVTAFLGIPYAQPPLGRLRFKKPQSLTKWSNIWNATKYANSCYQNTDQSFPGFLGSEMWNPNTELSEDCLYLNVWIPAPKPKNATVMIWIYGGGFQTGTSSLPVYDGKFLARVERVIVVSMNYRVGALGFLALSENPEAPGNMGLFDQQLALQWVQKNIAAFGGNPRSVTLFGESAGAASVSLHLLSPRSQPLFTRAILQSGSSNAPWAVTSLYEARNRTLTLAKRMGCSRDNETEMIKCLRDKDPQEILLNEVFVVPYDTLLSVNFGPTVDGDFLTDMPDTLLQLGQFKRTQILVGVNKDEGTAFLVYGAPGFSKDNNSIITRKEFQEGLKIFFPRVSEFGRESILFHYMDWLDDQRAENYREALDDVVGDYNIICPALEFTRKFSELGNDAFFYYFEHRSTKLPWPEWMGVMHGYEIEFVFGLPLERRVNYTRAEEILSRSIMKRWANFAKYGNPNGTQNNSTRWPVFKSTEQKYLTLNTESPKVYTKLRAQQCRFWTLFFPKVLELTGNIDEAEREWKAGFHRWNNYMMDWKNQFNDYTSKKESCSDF

Consider `Cc1cc2c(c(C)c1CCOC1OC(CO)C(O)C(O)C1O)C(=O)C(C)C2O` [(2R,3R)-Pteroside C, (2R,3R)-pteroside C], for which the “LD50 Based on MTT Assay, SY-SY5Y” value in data set [1] was >5,000 µM. Also, the “LD50 Based on MTT Assay, NIH3T3” value in data set [2] is on record as >5,000 µM. In addition, the “LD50 Based on MTT Assay, B16F10” value in data set [3] is given as >5,000 µM. The “Secretion of Aβ peptides, effect” value in data set [4] (500 μM) is “significantly decreased”. The “Secreted Aβ42 peptide, effect” value in data set [4] (500 µM, 24 h, P < 0.05) is “significantly decreased”. In addition, the “Inhibition type BACE1” value in data set [5] is “Mixed-type”. The Ki stood at 12.6 µM in data set [5] (determined by Dixon plot, read-out: Ki BACE1); 9.62 µM in data set [6] (determined by Dixon plot, read-out: Ki BChE); 8.13 µM in data set [7] (determined by Dixon plot, read-out: Ki AChE). Further, in data set [6], the “Inhibition type BChE” value is recorded as “Mixed-type”. In addition, in data set [7], the “Inhibition type AChE” value was “Mixed-type”.

Consider `Cc1cc2c(c(C)c1CCO)C(=O)[C@H](C)C2` [(2R)-Pterosin B, (2R)-pterosin B], for which, in data set [1], the “LD50 Based on MTT Assay, SY-SY5Y” value was >5,000 µM. Also, in data set [2], the “LD50 Based on MTT Assay, NIH3T3” value was >5,000 µM. Further, the “LD50 Based on MTT Assay, B16F10” value in data set [3] was >5,000 µM. Moreover, in data set [4] (500 μM), the “Secretion of Aβ peptides, effect” value is on record as “significantly decreased”. Also, the “Secreted Aβ40 peptides, effect” value in data set [4] (500 µM, 24 h) is “significantly decreased”. Besides, the “Reduction of Aβ40 peptide secreted into media” value in data set [4] (500 μM, 24 h, P < 0.01) is reported as “up to 50%”. In addition, in data set [5], the Ki was 38.3 µM and the “Inhibition type BACE1” value is on record as “Noncompetitive”. Moreover, in data set [6], the Ki worked out at 53.5 µM and the “Inhibition type BChE” value is reported as “Noncompetitive”. Moreover, in data set [7], the Ki amounted to 12.1 µM and the “Inhibition type AChE” value is given as “Mixed-type”.

As usually defined, the Ki is the dissociation constant of the complex between target and ligand, obtained from inhibition or displacement.

These data come from PMC6372667 (Experimental & Molecular Medicine, 2019).
